{"source": "patent US7034208B1", "about": "“Ahas inhibiting herbicide resistant wheat and method for selection thereof” (BASF Aktiengellschaft, priority 1991, dated 2006)", "key": {"[1]": {"test_system": "M4 progeny of wheat selections FS1-FS4 and Fidel", "test": "Segregation Study, postemergence spray of M4 progeny", "assay_type": "in vivo", "description": "A study is performed to assay M4 progeny of the initial mutant wheat selections for imidazolinone resistance and homogeneity. M4 seeds, from M3 plants (derived from initial selections, FS1-FS4) which survive the two-step screen described previously, are used in this study. In addition, M4 seeds derived from M3 plants of each selection which are not screened (designated “stock” plants) are evaluated as well as Fidel controls. Seeds, derived from both stock and screened M3 plants representing each infloresence of each original wheat selection (FS1-FS4), are planted in flats at a rate of twenty-five seeds per row and eight rows per flat. One week after planting, when the seedlings are at Z12 (two leaf) stage, the plants are sprayed with 62.5 g/ha PURSUIT™. The herbicide is applied with a laboratory belt sprayer at a rate of 950 L/ha with a belt speed of 12.5 sec/rev. using sprayer nozzle #40015E at a height 18 inches above the plants. Tween 20™ is used as a surfactant at 0.25% v/v. Plants are evaluated three weeks after spraying."}, "[2]": {"test_system": "wheat selections FS1-FS4 and Fidel", "test": "Field Trial I", "assay_type": "in vivo", "settings": "100 g/ha postemergent, yields 10 weeks after treatment", "description": "A field study is conducted to evaluate the tolerance of the imidazolinone-resistant wheat selections, FS1-FS4, to postemergent applications of imidazolinone herbicides. The variety Fidel, from which these selections are derived, is included as a susceptible check. Because Fidel is a French winter wheat variety and unadapted to New Jersey, this test is intended to evaluate the relative effects of the herbicide treatments on grain yields rather than to measure actual yield potentials for the genotypes. Thus, yields are presented as grams/plot rather than bushels/acre or metric tons/ha.\nM4 bulked seed from parental lines, FS1, FS2, FS3 and FS4 and Fidel wild-type, is used in this field trial. The trial is planted in an incomplete split plot design with the main plot as herbicide-rate combination and the split plot as genotypes. […] The plots are three meters long and 1.5 meters wide (7 rows with 7 inch spacing between rows) with approximately 25 seed planted per row. There is a one meter space between wheat lines and ten meters between replicates.\nTreatments are applied at a rate of 400 L/ha with a tractor mounted sprayer. Tween 20™ is used as a surfactant at 0.25% v/v. Wheat is treated at the Z22 stage or approximately 6 inches tall. Plant height and damage ratings are taken at 3 and 6 weeks after treatment. Yields are taken 10 weeks after treatment."}, "[3]": {"test_system": "wheat embryos (M3 of FS1-FS4, Fidel)", "test": "M3 Plant Screen: In vitro (excised embryos cultured on herbicide medium)", "assay_type": "cell-based", "description": "M3 plants from the four initial plant selections (labelled FS1, FS2, FS3 and FS4) are screened for PURSUIT™ resistance in vitro. M3 seeds from each mature infloresence of these initial M2 mutants are disinfested in 70% EtOH for 30 seconds followed by disinfestation in 50% solution containing 2.625% sodium hypochlorite (as described above) for 20 minutes under vaccuum with gentle agitation provided by a stir plate. The seeds are soaked in sterile distilled water in 100×5 mm sterile plastic petri dishes for 20-24 hours after which the embryos are excised and cultured onto medium containing either 10^−4, 10^−5, or 10^−6 M PURSUIT™. […] Embryo ratings are taken at either two and one-half or three weeks after culture initiation."}, "wheat seeds": {"test_system": "wheat seeds", "test": "Seed soak screen (Example 1, Step 1, Experiments 1-4)", "assay_type": "in vivo", "description": "The seeds are rinsed in sterile distilled water and then soaked in a herbicide concentration for a set period of time, as described below. Sets of twenty-five seeds are placed into 25 ml of the herbicide solution described below in a sterile 100×15 mm plastic petri dish and soaked for the designated time. The seeds are rinsed with water, dried with paper towels and planted (25 seeds/flat) approximately ½″ deep in 6×8 inch peat flats containing a moist, sterile, artificial soil, Metro Mix 350™ (Grace Company, Cambridge, Mass.). The treatments are evaluated at four weeks after treatment. The herbicides, rates and time periods evaluated are described below:\nEach treatment is replicated four times.\nEach treatment is replicated two times.\nThe protocol is as described above except that 35 seeds are soaked per petri dish; 25 seeds are still planted per flat. This experiment is repeated twice."}, "[4]": {"test_system": "wheat selection FS4 and Fidel", "test": "Field Trial II", "assay_type": "in vivo", "settings": "resistant selection FS4; postemergent; six weeks after treatment"}, "[5]": {"settings": "Control 2 = Fidel on medium with herbicide, concentration 10^−5"}, "[6]": {"settings": "Control 2 = Fidel on medium with herbicide, concentration 10^−6"}, "[7]": {"settings": "Control M3 = M3 seed on medium with herbicide (footnote), section 10^−5"}, "[8]": {"settings": "Control M3 = M3 seed on medium with herbicide (footnote), section 10^−6"}, "[9]": {"settings": "FS1 M3 embryos, concentration 10^−5"}, "[10]": {"settings": "FS1 M3 embryos, concentration 10^−6"}, "[11]": {"settings": "FS2 M3 embryos, concentration 10^−5"}, "[12]": {"settings": "FS2 M3 embryos, concentration 10^−6"}, "[13]": {"settings": "FS3 M3 embryos, concentration 10^−5"}, "[14]": {"settings": "FS3 M3 embryos, concentration 10^−6"}, "[15]": {"settings": "FS4 M3 embryos, concentration 10^−5"}, "[16]": {"settings": "FS4 M3 embryos, concentration 10^−6"}}, "data": [{"smiles": "CCc1cnc(C2=NC(C)(C(C)C)C(=O)N2)c(C(=O)O)c1", "note": "(stereo not drawn) [PURSUIT, 5-ethyl-2-(4-isopropyl-4-methyl-5-oxo-2-imidazolin-2-yl)-nicotinic acid]", "values": [{"measurement": "susceptibility of Fidel", "setting": "[1]; Fidel, 62.5 g/ha postemergence at Z12 stage, three weeks after spraying, all plants die", "value": "completely susceptible"}, {"measurement": "tolerance of resistant selections", "setting": "[1]; imidazolinone-resistant winter wheat selections, M4, 62.5 g/ha postemergent, greenhouse", "value": "excellent tolerance"}, {"measurement": "yield reduction", "setting": "[2]", "value": 35, "unit": "%"}, {"measurement": "Embryo Rating D (Damaged), number of embryos", "setting": "[3]; [5]", "value": 0}, {"measurement": "Embryo Rating S (Susceptible), number of embryos", "setting": "[3]; [5]", "value": 30}, {"measurement": "Embryo Rating T (Tolerant), number of embryos", "setting": "[3]; [5]", "value": 0}, {"measurement": "Embryo Rating D (Damaged), number of embryos", "setting": "[3]; [6]", "value": 0}, {"measurement": "Embryo Rating S (Susceptible), number of embryos", "setting": "[3]; [6]", "value": 15}, {"measurement": "Embryo Rating T (Tolerant), number of embryos", "setting": "[3]; [6]", "value": 0}, {"measurement": "Ave. Shoot Height", "setting": "[3]; [7]", "value": 14.7, "unit": "cm"}, {"measurement": "Embryo Rating D (Damaged), number of embryos", "setting": "[3]; [7]", "value": 1}, {"measurement": "Embryo Rating S (Susceptible), number of embryos", "setting": "[3]; [7]", "value": 1}, {"measurement": "Embryo Rating T (Tolerant), number of embryos", "setting": "[3]; [7]", "value": 27}, {"measurement": "Range Shoot Heights", "setting": "[3]; [7]", "value": "1-28 cm"}, {"measurement": "Ave. Shoot Height", "setting": "[3]; [8]", "value": 14.6, "unit": "cm"}, {"measurement": "Embryo Rating D (Damaged), number of embryos", "setting": "[3]; [8]", "value": 0}, {"measurement": "Embryo Rating S (Susceptible), number of embryos", "setting": "[3]; [8]", "value": 0}, {"measurement": "Embryo Rating T (Tolerant), number of embryos", "setting": "[3]; [8]", "value": 15}, {"measurement": "Range Shoot Heights", "setting": "[3]; [8]", "value": "2-28 cm"}, {"measurement": "Embryo Rating D (Damaged), number of embryos", "setting": "[3]; [9]", "value": 16}, {"measurement": "Embryo Rating S (Susceptible), number of embryos", "setting": "[3]; [9]", "value": 42}, {"measurement": "Embryo Rating T (Tolerant), number of embryos", "setting": "[3]; [9]", "value": 21}, {"measurement": "Range Shoot Heights", "setting": "[3]; [9]", "value": "0-1.5 cm"}, {"measurement": "Ave. Shoot Height", "setting": "[3]; [10]", "value": 9.1, "unit": "cm"}, {"measurement": "Embryo Rating D (Damaged), number of embryos", "setting": "[3]; [10]", "value": 0}, {"measurement": "Embryo Rating S (Susceptible), number of embryos", "setting": "[3]; [10]", "value": 0}, {"measurement": "Embryo Rating T (Tolerant), number of embryos", "setting": "[3]; [10]", "value": 70}, {"measurement": "Range Shoot Heights", "setting": "[3]; [10]", "value": "1-22 cm"}, {"measurement": "Embryo Rating D (Damaged), number of embryos", "setting": "[3]; [11]", "value": 14}, {"measurement": "Embryo Rating S (Susceptible), number of embryos", "setting": "[3]; [11]", "value": 45}, {"measurement": "Embryo Rating T (Tolerant), number of embryos", "setting": "[3]; [11]", "value": 21}, {"measurement": "Range Shoot Heights", "setting": "[3]; [11]", "value": "0-3.5 cm"}, {"measurement": "Ave. Shoot Height", "setting": "[3]; [12]", "value": 11.4, "unit": "cm"}, {"measurement": "Embryo Rating D (Damaged), number of embryos", "setting": "[3]; [12]", "value": 1}, {"measurement": "Embryo Rating S (Susceptible), number of embryos", "setting": "[3]; [12]", "value": 0}, {"measurement": "Embryo Rating T (Tolerant), number of embryos", "setting": "[3]; [12]", "value": 64}, {"measurement": "Range Shoot Heights", "setting": "[3]; [12]", "value": "1-23 cm"}, {"measurement": "Embryo Rating D (Damaged), number of embryos", "setting": "[3]; [13]", "value": 9}, {"measurement": "Embryo Rating S (Susceptible), number of embryos", "setting": "[3]; [13]", "value": 58}, {"measurement": "Embryo Rating T (Tolerant), number of embryos", "setting": "[3]; [13]", "value": 12}, {"measurement": "Range Shoot Heights", "setting": "[3]; [13]", "value": "0-4.5 cm"}, {"measurement": "Ave. Shoot Height", "setting": "[3]; [14]", "value": 5.2, "unit": "cm"}, {"measurement": "Embryo Rating D (Damaged), number of embryos", "setting": "[3]; [14]", "value": 12}, {"measurement": "Embryo Rating S (Susceptible), number of embryos", "setting": "[3]; [14]", "value": 22}, {"measurement": "Embryo Rating T (Tolerant), number of embryos", "setting": "[3]; [14]", "value": 34}, {"measurement": "Range Shoot Heights", "setting": "[3]; [14]", "value": "1-23 cm"}, {"measurement": "Embryo Rating D (Damaged), number of embryos", "setting": "[3]; [15]", "value": 15}, {"measurement": "Embryo Rating S (Susceptible), number of embryos", "setting": "[3]; [15]", "value": 31}, {"measurement": "Embryo Rating T (Tolerant), number of embryos", "setting": "[3]; [15]", "value": 16}, {"measurement": "Range Shoot Heights", "setting": "[3]; [15]", "value": "0-3.0 cm"}, {"measurement": "Ave. Shoot Height", "setting": "[3]; [16]", "value": 13.4, "unit": "cm"}, {"measurement": "Embryo Rating D (Damaged), number of embryos", "setting": "[3]; [16]", "value": 8}, {"measurement": "Embryo Rating S (Susceptible), number of embryos", "setting": "[3]; [16]", "value": 13}, {"measurement": "Embryo Rating T (Tolerant), number of embryos", "setting": "[3]; [16]", "value": 59}, {"measurement": "Range Shoot Heights", "setting": "[3]; [16]", "value": "1-33 cm"}, {"measurement": "embryos that germinate", "setting": "[3]; Fidel controls or M3 embryos, medium containing 10^−4 M", "value": "None of the embryos"}, {"measurement": "tolerance of embryos", "setting": "[3]; M3 embryos, 10^−5 M in the medium, still considerable growth inhibition", "value": "somewhat tolerant"}, {"measurement": "concentration that prevents the survival of potential false positives", "setting": "wheat seeds; seed soak for 72 hours", "value": 1000, "unit": "µM"}, {"measurement": "concentration that prevents the survival of potential false positives", "setting": "wheat seeds; seed soak for 96 hours", "value": 750, "unit": "µM"}, {"measurement": "effect on final plant height", "setting": "[4]", "value": "no effect"}]}]}
